Laboratory results as given in US10294202B2, “Pyrrolidinones as herbicides” (FMC Corporation, priority 2013, dated 2019).

Columns and labels:
[1] = tested on: wheat; assay: Test A pre-/postemergence herbicide test; format: in vivo, Triticum aestivum
Procedure, shortened: (§1)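 Approximately 10 days after treatment in the greenhouse, plants were compared with untreated controls and given a 0–100 visual injury rating. Applications: preemergence directed soil spray; postemergence on 2–10 cm plants at the one- to two-leaf stage.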

[2] = tested on: pigweed; assay: Test A pre-/postemergence herbicide test; format: in vivo, Amaranthus retroflexus
Procedure, shortened: as §1

[3] = tested on: velvetleaf; assay: Test A pre-/postemergence herbicide test; format: in vivo, Abutilon theophrasti
Procedure, shortened: as §1

[4] = tested on: ducksalad; assay: Test C flooded paddy test; format: in vivo, Heteranthera limosa; details: Flood
Procedure, shortened: (§2)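 2-leaf stage; flood 3 cm over soil; compound into paddy water; depth held; greenhouse 13–15 d; visual % control vs untreated (0 = none, 100 = complete); "-" = not tested.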

[5] = tested on: morningglory; assay: Test A pre-/postemergence herbicide test; format: in vivo, Ipomoea spp.
Procedure, shortened: as §1

[6] = tested on: sedge, umbrella; assay: Test C flooded paddy test; format: in vivo, Cyperus difformis; details: Flood
Procedure, shortened: as §2

[7] = tested on: rice; assay: Test C flooded paddy test; format: in vivo, Oryza sativa; details: Flood
Procedure, shortened: as §2

[8] = tested on: barnyardgrass; assay: Test A pre-/postemergence herbicide test; format: in vivo, Echinochloa crus-galli
Procedure, shortened: as §1

[9] = tested on: corn; assay: Test A pre-/postemergence herbicide test; format: in vivo, Zea mays
Procedure, shortened: as §1

[10] = tested on: crabgrass, large; assay: Test A pre-/postemergence herbicide test; format: in vivo, Digitaria sanguinalis
Procedure, shortened: as §1

[11] = tested on: barnyardgrass; assay: Test C flooded paddy test; format: in vivo, Echinochloa crus-galli; details: Flood
Procedure, shortened: as §2

[12] = tested on: giant foxtail; assay: Test A pre-/postemergence herbicide test; format: in vivo, Setaria faberii; details: for Plant response rating, Foxtail, Giant: 0 to 100 scale
Procedure, shortened: as §1

[13] = Postemergence, 125 g ai/ha, 0 to 100 scale, 0 no effect, 100 complete control
[14] = Postemergence, 500 g ai/ha, 0 to 100 scale (0 no effect, 100 complete control)
[15] = Preemergence, 125 g ai/ha, visual rating on 0 to 100 scale (0 no effect, 100 complete control)
[16] = preemergence, 500 g ai/ha, 0 to 100 scale
[17] = 31 g ai/ha, scale of 0 to 100 where 0 is no effect and 100 is complete control, 13 to 15 days
[18] = 62 g ai/ha, scale of 0 to 100 where 0 is no effect and 100 is complete control, 13 to 15 days
[19] = 125 g ai/ha, scale of 0 to 100 where 0 is no effect and 100 is complete control, 13 to 15 days
[20] = 125 g ai/ha, visual rating, 0 to 100 scale, 0 no effect, 100 complete control, approximately 10 days, preemergence
[21] = Postemergence, 125 g ai/ha, 0 to 100 scale, 0 is no effect, 100 is complete control
[22] = preemergence, 500 g ai/ha, 0 to 100 scale, 0 is no effect and 100 is complete control
[23] = 250 g ai/ha, scale of 0 to 100 where 0 is no effect and 100 is complete control, 13 to 15 days

CC1(C)NC(=O)C(C(=O)Nc2ccccc2F)C1c1ccc(F)c(F)c1 (centres unmarked) [Compound 11]
70: Crabgrass, Large plant response rating [10, 15]
20: Plant response rating, Barnyardgrass ([8]; preemergence, 500 g ai/ha, 0 to 100 scale (0 no effect, 100 complete control)) | Foxtail, Giant plant response rating [12, 15]
50: Plant response rating, Barnyardgrass [8, 14] | Plant response rating, Crabgrass, Large [10, 14] | Plant response rating, Foxtail, Giant ([12]; preemergence, 500 g ai/ha)
90: Plant response rating, Crabgrass, Large [10, 16]
0: Plant response rating, Wheat [1, 13] | Plant response rating, Wheat [1, 14] | Wheat plant response rating [1, 15] | Plant response rating, Wheat [1, 16] | Plant response rating, Pigweed [2, 13] | Plant response rating, Pigweed [2, 14] | Pigweed plant response rating [2, 15] | Plant response rating, Pigweed [2, 16] | Plant response rating, Velvetleaf [3, 13] | Plant response rating, Velvetleaf [3, 14] | Velvetleaf plant response rating [3, 15] | Plant response rating, Velvetleaf [3, 16] | Plant response rating, Ducksalad [4, 17] | Plant response rating, Ducksalad [4, 18] | Plant response rating, Ducksalad [4, 19] | Plant response rating, Ducksalad ([4]; 250 g ai/ha, scale 0 to 100) | Plant response rating, Morningglory [5, 13] | Plant response rating, Morningglory [5, 14] | Morningglory plant response rating [5, 15] | Plant response rating, Morningglory [5, 16] | Plant response rating, Sedge, Umbrella [6, 17] | Plant response rating, Sedge, Umbrella [6, 18] | Plant response rating, Sedge, Umbrella [6, 19] | Plant response rating, Sedge, Umbrella ([6]; 250 g ai/ha, scale 0 to 100) | Plant response rating, Rice [7, 17] | Plant response rating, Rice [7, 18] | Plant response rating, Rice [7, 19] | Plant response rating, Rice ([7]; 250 g ai/ha, scale 0 to 100) | Plant response rating, Barnyardgrass [8, 13] | Barnyardgrass plant response rating [8, 15] | Plant response rating, Corn [9, 13] | Plant response rating, Corn [9, 14] | Corn plant response rating [9, 15] | Plant response rating, Corn [9, 16] | Plant response rating, Crabgrass, Large [10, 13] | Plant response rating, Barnyardgrass [11, 17] | Plant response rating, Barnyardgrass [11, 18] | Plant response rating, Barnyardgrass [11, 19] | Plant response rating, Barnyardgrass ([11]; 250 g ai/ha, scale 0 to 100) | Plant response rating, Foxtail, Giant ([12]; Postemergence, 125 g ai/ha, 0 no effect, 100 complete control)

O=C1NCC(c2cccc(C(F)(F)F)c2)C1C(=O)Nc1ccccc1Br (racemic) [Compound 190]
60: Plant response rating, Barnyardgrass [8, 20]
70: Plant response rating, Barnyardgrass [8, 21] | Plant response rating, Crabgrass, Large [10, 21] | Plant response rating, Foxtail, Giant ([12]; Postemergence, 125 g ai/ha, 0 is no effect, 100 is complete control)
65: Plant response rating, Barnyardgrass ([11]; 1000 g ai/ha, scale 0 to 100)
25: Plant response rating, Barnyardgrass [11, 23]
50: Plant response rating, Ducksalad [4, 19] | Plant response rating, Barnyardgrass ([11]; 500 g ai/ha, scale 0 to 100)
80: Plant response rating, Foxtail, Giant ([12]; 125 g ai/ha, visual rating, 0 no effect, 100 complete control, approximately 10 days, preemergence) | Foxtail, Giant plant response rating (0 to 100 scale, 0 is no effect, 100 is complete control) ([12]; Postemergence, 500 g ai/ha)
75: Plant response rating, Ducksalad [4, 23]
85: Plant response rating, Ducksalad ([4]; 500 g ai/ha, scale 0 to 100)
10: Velvetleaf plant response rating (0 to 100 scale, 0 is no effect, 100 is complete control) ([3]; Postemergence, 500 g ai/ha) | Morningglory plant response rating (0 to 100 scale, 0 is no effect, 100 is complete control) ([5]; Postemergence, 500 g ai/ha) | Plant response rating, Barnyardgrass [11, 19]
0: Plant response rating, Wheat [1, 20] | Plant response rating, Wheat [1, 21] | Wheat plant response rating (0 to 100 scale, 0 is no effect, 100 is complete control) ([1]; Postemergence, 500 g ai/ha) | Plant response rating, Pigweed [2, 20] | Plant response rating, Pigweed [2, 21] | Pigweed plant response rating (0 to 100 scale, 0 is no effect, 100 is complete control) ([2]; Postemergence, 500 g ai/ha) | Plant response rating, Pigweed [2, 22] | Plant response rating, Velvetleaf [3, 20] | Plant response rating, Velvetleaf [3, 21] | Plant response rating, Velvetleaf [3, 22] | Plant response rating, Morningglory [5, 20] | Plant response rating, Morningglory [5, 21] | Plant response rating, Morningglory [5, 22] | Plant response rating, Sedge, Umbrella [6, 19] | Plant response rating, Sedge, Umbrella [6, 23] | Plant response rating, Sedge, Umbrella ([6]; 500 g ai/ha, scale 0 to 100) | Plant response rating, Sedge, Umbrella ([6]; 1000 g ai/ha, scale 0 to 100) | Plant response rating, Rice [7, 19] | Plant response rating, Rice [7, 23] | Plant response rating, Rice ([7]; 500 g ai/ha, scale 0 to 100) | Plant response rating, Corn [9, 20] | Plant response rating, Corn [9, 21] | Plant response rating, Corn [9, 22]
30: Plant response rating, Wheat [1, 22]
90: Barnyardgrass plant response rating (0 to 100 scale, 0 is no effect, 100 is complete control) ([8]; Postemergence, 500 g ai/ha) | Plant response rating, Barnyardgrass [8, 22] | Plant response rating, Crabgrass, Large [10, 20] | Crabgrass, Large plant response rating (0 to 100 scale, 0 is no effect, 100 is complete control) ([10]; Postemergence, 500 g ai/ha) | Plant response rating, Crabgrass, Large [10, 22] | Plant response rating, Foxtail, Giant ([12]; preemergence, 500 g ai/ha, 0 is no effect and 100 is complete control)
40: Corn plant response rating (0 to 100 scale, 0 is no effect, 100 is complete control) ([9]; Postemergence, 500 g ai/ha)
15: Plant response rating, Rice ([7]; 1000 g ai/ha, scale 0 to 100)
100: Plant response rating, Ducksalad ([4]; 1000 g ai/ha, scale 0 to 100)
